Activity calls are given as the source filed them. The rule behind the calls is not given here.
Experiments:
RAW264.7 [1] = experiment: Cytotoxicity against mouse RAW264.7 assessed as reduction in cell viability at 20 uM measured after 24 hrs by MTT assay relative to control; assay type: cell-based; settings: raw264.7, 24 h
RAW264.7 [2] = experiment: Antiinflammatory activity in mouse RAW264.7 cells assessed as inhibition of LPS-induced NO production at 20 uM after 24 hrs by Griess method; assay type: functional, cell-based
RAW264.7 [3] = experiment: Inhibition of LPS-stimulated NFkappaB activation in mouse RAW264.7 cells assessed as reduction in LPS-induced IkappaB phosphorylation at 7.5 to 30 uM after 2 hrs by Western blot analysis; assay type: cell-based; settings: dose 7.5-30 µM
RAW264.7 [4] = experiment: Inhibition of LPS-induced NO production in mouse RAW264.7 cells assessed as reduction in COX-2 protein expression measured after 24 hrs by Western blot analysis; assay type: functional, cell-based; settings: dose microM <=30, time 24.0 hrs
RAW264.7 [5] = experiment: Inhibition of LPS-induced JNK phosphorylation in mouse RAW264.7 cell upto 30 uM measured after 2 hr by Western blot analysis; settings: dose microM <=30, time 2.0 hrs
[6] = molecular target: Mitogen-activated protein kinase 1 and 3 (ERK2 and ERK1) (Mus musculus) (UniProt P63085+Q63844); experiment: Inhibition of LPS-induced ERK1/2 phosphorylation in mouse RAW264.7 cell upto 30 uM measured after 2 hr by Western blot analysis; settings: dose microM <=30, time 2.0 hrs
Chain of Mitogen-activated protein kinase 1 and 3 (ERK2 and ERK1) (Mus musculus) (P63085 whole entry, looked up): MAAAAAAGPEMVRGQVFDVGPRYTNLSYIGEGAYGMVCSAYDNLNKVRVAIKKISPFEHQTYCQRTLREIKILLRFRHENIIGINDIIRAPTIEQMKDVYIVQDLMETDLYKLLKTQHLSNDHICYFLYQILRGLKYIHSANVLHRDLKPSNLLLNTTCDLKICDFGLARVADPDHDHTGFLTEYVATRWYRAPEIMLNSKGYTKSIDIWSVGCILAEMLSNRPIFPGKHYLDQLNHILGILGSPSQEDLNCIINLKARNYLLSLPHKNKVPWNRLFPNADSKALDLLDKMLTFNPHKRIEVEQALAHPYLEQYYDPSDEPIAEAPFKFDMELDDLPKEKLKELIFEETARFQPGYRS
Chain of Mitogen-activated protein kinase 1 and 3 (ERK2 and ERK1) (Mus musculus) (Q63844 whole entry, looked up): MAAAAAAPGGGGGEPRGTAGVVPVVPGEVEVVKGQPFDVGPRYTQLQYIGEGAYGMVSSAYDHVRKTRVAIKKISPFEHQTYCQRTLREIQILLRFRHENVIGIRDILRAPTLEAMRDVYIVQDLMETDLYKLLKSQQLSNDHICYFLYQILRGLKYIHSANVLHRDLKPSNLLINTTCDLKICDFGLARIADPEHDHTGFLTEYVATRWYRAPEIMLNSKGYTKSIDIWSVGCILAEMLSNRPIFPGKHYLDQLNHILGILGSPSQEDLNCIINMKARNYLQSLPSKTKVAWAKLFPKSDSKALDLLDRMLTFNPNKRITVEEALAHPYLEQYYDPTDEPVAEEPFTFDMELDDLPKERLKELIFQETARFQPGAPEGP

RAW264.7 [7] = experiment: Inhibition of LPS-induced TNFalpha protein expression in mouse RAW264.7 cells upto 30 uM measured after 6 hrs by ELISA; assay type: functional, cell-based; settings: dose microM <=30, time 6.0 hrs
RAW264.7 [8] = experiment: Inhibition of LPS-induced IL-6 protein expression in mouse RAW264.7 cells upto 30 uM measured after 6 hrs by ELISA; assay type: functional, cell-based; settings: dose microM <=30, time 6.0 hrs
[9] = molecular target: Transcription factor p65 (Mus musculus) (UniProt Q04207); experiment: Inhibition of LPS-induced NFkappaB p65 nucleus translocation in mouse RAW264.7 cells at 30 uM measured after 2 hr by immunofluorescence microscopic analysis; assay type: cell-based
Chain of Transcription factor p65 (Mus musculus) (Q04207 whole entry): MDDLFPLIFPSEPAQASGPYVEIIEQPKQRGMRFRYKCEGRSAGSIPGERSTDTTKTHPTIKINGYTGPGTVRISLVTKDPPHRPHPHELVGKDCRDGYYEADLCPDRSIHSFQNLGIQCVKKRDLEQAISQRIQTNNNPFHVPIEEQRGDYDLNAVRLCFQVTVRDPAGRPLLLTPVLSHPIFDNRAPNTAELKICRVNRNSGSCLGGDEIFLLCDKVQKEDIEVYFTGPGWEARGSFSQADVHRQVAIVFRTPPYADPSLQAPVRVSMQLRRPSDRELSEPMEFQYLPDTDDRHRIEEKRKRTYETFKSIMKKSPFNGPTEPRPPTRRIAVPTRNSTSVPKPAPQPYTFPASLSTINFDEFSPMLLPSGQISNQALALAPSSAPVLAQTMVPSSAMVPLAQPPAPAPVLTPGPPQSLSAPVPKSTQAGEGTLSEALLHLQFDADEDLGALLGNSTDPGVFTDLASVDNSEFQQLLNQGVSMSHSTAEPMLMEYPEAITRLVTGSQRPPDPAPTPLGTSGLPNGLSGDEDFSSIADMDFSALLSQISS

RAW264.7 [10] = experiment: Inhibition of LPS-induced NO production in mouse RAW264.7 cells assessed as reduction in iNOS protein expression measured after 24 hrs by Western blot analysis; assay type: functional, cell-based; settings: dose microM <=30, time 24.0 hrs
RAW264.7 [11] = experiment: Inhibition of LPS-induced p38 phosphorylation in mouse RAW264.7 cell upto 30 uM measured after 2 hr by Western blot analysis; settings: dose microM <=30, time 2.0 hrs

Row | Compound | Activity (RAW264.7 [1]) | Activity (RAW264.7 [2]) | further results
1 | CC(C)(O)[C@H]1CC[C@@](C)([C@H]2CC[C@]3(C)[C@@H]2[C@H](O)C[C@@H]2[C@@]4(C)CC[C@H](OC(=O)[C@@H](N)CCC(=O)O)C(C)(C)[C@@H]4CC[C@]23C)O1 | Non-Toxic | Active | –
2 | CC(C)(O)[C@H]1CC[C@@](C)([C@H]2CC[C@]3(C)[C@@H]2[C@H](O)C[C@@H]2[C@@]4(C)CC[C@H](OC(=O)[C@@H](N)CCCCN)C(C)(C)[C@@H]4CC[C@]23C)O1 | Non-Toxic | – | –
3 | CC(C)(C)OC(=O)NCC(=O)NCC(=O)O[C@H]1CC[C@]2(C)[C@H]3C[C@@H](O)[C@@H]4[C@@H]([C@]5(C)CC[C@H](C(C)(C)O)O5)CC[C@@]4(C)[C@]3(C)CC[C@H]2C1(C)C | Non-Toxic | Active | inhibition (RAW264.7 [3]): Dose-dependent effect; inhibition (RAW264.7 [4]): Dose-dependent effect; inhibition (RAW264.7 [5]): inactive; inhibition [6]: Dose-dependent effect; inhibition (RAW264.7 [7]): Dose-dependent effect; inhibition (RAW264.7 [8]): Dose-dependent effect; inhibition [9]: Dose-dependent effect; inhibition (RAW264.7 [10]): Dose-dependent effect; inhibition (RAW264.7 [11]): Dose-dependent effect
4 | CC(C)(C)OC(=O)N[C@@H](Cc1ccccc1)C(=O)O[C@H]1CC[C@]2(C)[C@H]3C[C@@H](O)[C@@H]4[C@@H]([C@]5(C)CC[C@H](C(C)(C)O)O5)CC[C@@]4(C)[C@]3(C)CC[C@H]2C1(C)C | Non-Toxic | – | –
5 | CC(C)(O)[C@H]1CC[C@@](C)([C@H]2CC[C@]3(C)[C@@H]2[C@H](O)C[C@@H]2[C@@]4(C)CC[C@H](OC(=O)[C@@H](N)Cc5ccccc5)C(C)(C)[C@@H]4CC[C@]23C)O1 | Non-Toxic | – | –
6 | CC(C)(O)[C@@H]1CC[C@@](C)([C@H]2CC[C@]3(C)[C@@H]2[C@H](O)C[C@@H]2[C@@]4(C)CC[C@H](OC(=O)CNC(=O)CNC(=O)CN)C(C)(C)[C@@H]4CC[C@]23C)O1 | Non-Toxic | Active | –
7 | CC(C)(C)OC(=O)NCCCC[C@H](NC(=O)OC(C)(C)C)C(=O)O[C@H]1CC[C@]2(C)[C@H]3C[C@@H](O)[C@@H]4[C@@H]([C@]5(C)CC[C@H](C(C)(C)O)O5)CC[C@@]4(C)[C@]3(C)CC[C@H]2C1(C)C | Non-Toxic | Active | –
8 | CC(C)(O)[C@@H]1CC[C@@](C)([C@H]2CC[C@]3(C)[C@@H]2[C@H](O)C[C@@H]2[C@@]4(C)CC[C@H](OC(=O)[C@@H](N)Cc5ccccc5)C(C)(C)[C@@H]4CC[C@]23C)O1 | Non-Toxic | – | –
9 | C[C@]12CCC(=O)C=C1CC[C@@H]1[C@@H]2[C@@H](O)C[C@@]2(C)[C@H]1CC[C@]2(O)C(=O)COC(=O)CCC(=O)[O-].[Na+] [HYDROCORTISONE SODIUM SUCCINATE] | Non-Toxic | – | –
10 | CC(C)(C)OC(=O)NCC(=O)NCC(=O)O[C@H]1CC[C@]2(C)[C@H]3C[C@@H](O)[C@@H]4[C@@H]([C@]5(C)CC[C@@H](C(C)(C)O)O5)CC[C@@]4(C)[C@]3(C)CC[C@H]2C1(C)C | Non-Toxic | Active | –
11 | CC(C)(O)[C@@H]1CC[C@@](C)([C@H]2CC[C@]3(C)[C@@H]2[C@H](O)C[C@@H]2[C@@]4(C)CC[C@H](OC(=O)[C@@H](N)CCC(=O)O)C(C)(C)[C@@H]4CC[C@]23C)O1 | Non-Toxic | Active | –
12 | CC(C)(C)OC(=O)NCC(=O)NCC(=O)NCC(=O)O[C@H]1CC[C@]2(C)[C@H]3C[C@@H](O)[C@@H]4[C@@H]([C@]5(C)CC[C@H](C(C)(C)O)O5)CC[C@@]4(C)[C@]3(C)CC[C@H]2C1(C)C | Non-Toxic | inactive | –
13 | CC(C)(C)OC(=O)CC[C@H](NC(=O)OC(C)(C)C)C(=O)O[C@H]1CC[C@]2(C)[C@H]3C[C@@H](O)[C@@H]4[C@@H]([C@]5(C)CC[C@H](C(C)(C)O)O5)CC[C@@]4(C)[C@]3(C)CC[C@H]2C1(C)C | Non-Toxic | – | –
14 | CC(C)(C)OC(=O)NCC(=O)O[C@H]1CC[C@]2(C)[C@H]3C[C@@H](O)[C@@H]4[C@@H]([C@]5(C)CC[C@@H](C(C)(C)O)O5)CC[C@@]4(C)[C@]3(C)CC[C@H]2C1(C)C | Non-Toxic | Active | –
15 | CC(C)(O)[C@@H]1CC[C@@](C)([C@H]2CC[C@]3(C)[C@@H]2[C@H](O)C[C@@H]2[C@@]4(C)CC[C@H](OC(=O)[C@@H](N)CCCCN)C(C)(C)[C@@H]4CC[C@]23C)O1 | Non-Toxic | – | –
16 | CC(C)(O)[C@H]1CC[C@@](C)([C@H]2CC[C@]3(C)[C@@H]2[C@H](O)C[C@@H]2[C@@]4(C)CC[C@H](OC(=O)CN)C(C)(C)[C@@H]4CC[C@]23C)O1 | Non-Toxic | Active | –
17 | CC(C)(O)[C@H]1CC[C@@](C)([C@H]2CC[C@]3(C)[C@@H]2[C@H](O)C[C@@H]2[C@@]4(C)CC[C@H](OC(=O)CNC(=O)CN)C(C)(C)[C@@H]4CC[C@]23C)O1 | Non-Toxic | Active | –
18 | CC(C)(O)[C@@H]1CC[C@@](C)([C@H]2CC[C@]3(C)[C@@H]2[C@H](O)C[C@@H]2[C@@]4(C)CC[C@H](OC(=O)CNC(=O)CN)C(C)(C)[C@@H]4CC[C@]23C)O1 | Non-Toxic | Active | –
19 | CC(C)(C)OC(=O)NCC(=O)NCC(=O)NCC(=O)O[C@H]1CC[C@]2(C)[C@H]3C[C@@H](O)[C@@H]4[C@@H]([C@]5(C)CC[C@@H](C(C)(C)O)O5)CC[C@@]4(C)[C@]3(C)CC[C@H]2C1(C)C | Non-Toxic | – | –
20 | CC(C)(C)OC(=O)CC[C@H](NC(=O)OC(C)(C)C)C(=O)O[C@H]1CC[C@]2(C)[C@H]3C[C@@H](O)[C@@H]4[C@@H]([C@]5(C)CC[C@@H](C(C)(C)O)O5)CC[C@@]4(C)[C@]3(C)CC[C@H]2C1(C)C | Non-Toxic | – | –
21 | CC(C)(O)[C@H]1CC[C@@](C)([C@H]2CC[C@]3(C)[C@@H]2[C@H](O)C[C@@H]2[C@@]4(C)CC[C@H](OC(=O)CNC(=O)CNC(=O)CN)C(C)(C)[C@@H]4CC[C@]23C)O1 | Non-Toxic | Active | –
22 | CC(C)(O)[C@@H]1CC[C@@](C)([C@H]2CC[C@]3(C)[C@@H]2[C@H](O)C[C@@H]2[C@@]4(C)CC[C@H](OC(=O)CN)C(C)(C)[C@@H]4CC[C@]23C)O1 | Non-Toxic | Active | –
23 | CC(C)(O)[C@@H]1CC[C@@](C)([C@H]2CC[C@]3(C)[C@@H]2[C@H](O)C[C@@H]2[C@@]4(C)CC[C@H](O)C(C)(C)[C@@H]4CC[C@]23C)O1 | Non-Toxic | Active | –
24 | CC(C)(O)[C@H]1CC[C@@](C)([C@H]2CC[C@]3(C)[C@@H]2[C@H](O)C[C@@H]2[C@@]4(C)CC[C@H](O)C(C)(C)[C@@H]4CC[C@]23C)O1 | Non-Toxic | Active | –
25 | CC(C)(C)OC(=O)NCCCC[C@H](NC(=O)OC(C)(C)C)C(=O)O[C@H]1CC[C@]2(C)[C@H]3C[C@@H](O)[C@@H]4[C@@H]([C@]5(C)CC[C@@H](C(C)(C)O)O5)CC[C@@]4(C)[C@]3(C)CC[C@H]2C1(C)C | Non-Toxic | Active | –
26 | CC(C)(C)OC(=O)N[C@@H](Cc1ccccc1)C(=O)O[C@H]1CC[C@]2(C)[C@H]3C[C@@H](O)[C@@H]4[C@@H]([C@]5(C)CC[C@@H](C(C)(C)O)O5)CC[C@@]4(C)[C@]3(C)CC[C@H]2C1(C)C | Non-Toxic | – | –
27 | CC(C)(C)OC(=O)NCC(=O)O[C@H]1CC[C@]2(C)[C@H]3C[C@@H](O)[C@@H]4[C@@H]([C@]5(C)CC[C@H](C(C)(C)O)O5)CC[C@@]4(C)[C@]3(C)CC[C@H]2C1(C)C | Non-Toxic | Active | –

From ChEMBL document CHEMBL4765372, “Design, synthesis and anti-inflammatory activity of 3-amino acid derivatives of ocotillol-type sapogenins” (Eur J Med Chem, 2020)
